EC50 and inhibition data for 14 compounds are collected here from US10703748B2, “Diazanaphthalen-3-yl carboxamides and preparation and use thereof” (Samumed, LLC, priority 2017, dated 2020).

Assay [1] deals with Wnt-responsive Sp5-Luc reporter in SW480 colon carcinoma cells. In words: Screening assay for Wnt activity (Sp5-Luc reporter gene assay). The conditions noted are these: Homo sapiens; for EC50: SW480; for inhibition at 10 µM: SW480, read-out: percent inhibition at 10 μM.
The target in another assay is DYRK1A kinase (Homo sapiens, UniProt Q13627). In words: DYRK1A kinase activity (Ser/Thr 18 peptide Z-lyte FRET assay).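 Note: kinase activity read as coumarin/fluorescein emission ratio after development step, with unphosphorylated and phosphorylated peptide forms setting 0% and 100% controls, values from dose-response curves.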 The format is biochemical. To be noted: recombinant DYRK1A, 30 μM ATP, one hour at room temperature.
The next assay has as its system IL-6. Nature of the assay: IL-6 inhibition in LPS-stimulated human peripheral blood mononuclear cells (HTRF). The conditions noted are these: Homo sapiens, PBMC; for EC50: 22 h; for inhibition at 10 µM: read-out: percentage in parentheses after EC50 >10.
The test system of assay [2] is α-smooth muscle actin (aSMA) positive LL29 cells. In words: Inhibition of the fibrotic process: αSMA staining in TGF-β1 treated LL29 fibroblasts from IPF patients. To be noted: Homo sapiens, Fibroblast; for EC50: 96 h; for inhibition at 10 µM: read-out: percentage in parentheses after EC50 >10.
Assay [3] concerns SW480 colon carcinoma cells. In words: Cell viability assay (CellTiter-Glo). The conditions noted are these: Homo sapiens; for EC50: SW480, 96 h; for inhibition at 10 µM: SW480, read-out: percent inhibition at 10 μM.
For assay [4], the system named is secreted cytokines TNFα, IL-6 and KC-GRO. Nature of the assay: Secreted cytokines in Lipopolysaccharide-stimulated BV-2 cells (Table 9 does not say which cytokine). Type of assay: cell-based, mouse. To be noted: Mus musculus, BV-2, 5 h.
For a further assay, the target named is GSK3β kinase (Homo sapiens, UniProt P49841). Nature of the assay: GSK3β kinase activity (Ser/Thr 09 peptide Z-lyte FRET assay). Type of assay: biochemical.
Sequence of GSK3β kinase (P49841 whole entry): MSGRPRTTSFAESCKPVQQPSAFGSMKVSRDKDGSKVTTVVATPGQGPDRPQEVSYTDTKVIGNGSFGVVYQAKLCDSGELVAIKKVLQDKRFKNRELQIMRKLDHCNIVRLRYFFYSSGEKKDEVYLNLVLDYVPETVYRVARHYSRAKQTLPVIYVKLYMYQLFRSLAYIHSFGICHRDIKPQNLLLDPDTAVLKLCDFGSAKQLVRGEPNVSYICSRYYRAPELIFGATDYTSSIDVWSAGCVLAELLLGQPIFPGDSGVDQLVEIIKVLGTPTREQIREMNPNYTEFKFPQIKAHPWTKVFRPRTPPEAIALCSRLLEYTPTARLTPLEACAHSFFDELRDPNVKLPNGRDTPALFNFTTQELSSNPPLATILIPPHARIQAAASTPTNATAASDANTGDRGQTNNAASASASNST
Where [5] appears, read: recombinant kinase, 46 μM ATP, one hour at room temperature, read-out: EC50.

Like-named read-outs stand apart in the source and are kept apart here.

Take `Nc1cncc(-c2ccc3cnc(NC(=O)c4ccc(OC5CCNCC5)cc4)nc3c2)c1` [Compound 1710, N-(7-(5-Aminopyridin-3-yl)quinazolin-2-yl)-4-(piperidin-4-yloxy)benzamide]: the EC50 is 3380 nM in assay [1]; 2 nM on DYRK1A kinase; above 10000 nM with IL-6; above 10000 nM in assay [2]; above 10000 nM in assay [3]; 5500 nM in assay [4] (read-out: EC50). Also, the EC50 on GSK3β kinase (setting [5]) came out at 8040 nM. For the same compound, the inhibition at 10 µM is 7.2% with IL-6, 10.4% in assay [2] and 39.6% in assay [3].

In the case of `CN1CCN(c2cc(C(=O)Nc3ncc4ccc(-c5ccc(N)nc5)cc4n3)ccn2)CC1` [Compound 1713, N-(7-(6-Aminopyridin-3-yl)quinazolin-2-yl)-2-(4-methylpiperazin-1-yl)isonicotinamide], the EC50 in assay [1] was 1140 nM; on DYRK1A kinase, 27 nM; with IL-6 it was above 10000 nM; in assay [2], 5160 nM; in assay [3], 1560 nM; in assay [4], 1000 nM. The compound also displayed an EC50 at GSK3β kinase above 10000 nM. The inhibition at 10 µM with IL-6 was 5.7%.

`CN1CC=C(c2cc(C(=O)Nc3ncc4ccc(-c5cncc(NC(C)(C)C)n5)cc4n3)ccn2)CC1` [Compound 1773, N-(7-(6-(tert-Butylamino)pyrazin-2-yl)quinazolin-2-yl)-1′-methyl-1′,2′,3′,6′-tetrahydro-[2,4′-bipyridine]-4-carboxamide]: the EC50 was 88 nM in assay [1]; 1 nM at DYRK1A kinase; above 10000 nM with IL-6; 163 nM in assay [2]; 95 nM in assay [3]; 5 nM in assay [4] (read-out: EC50). The EC50 on GSK3β kinase (setting [5]) is 995 nM. In the assay with IL-6, the inhibition at 10 µM came to 40.7%.

Turning to `O=C(Nc1ncc2ccc(-c3cncc(NC4CCNCC4)n3)cc2n1)C1CCOCC1` [Compound 1783, N-(7-(6-(Piperidin-4-ylamino)pyrazin-2-yl)quinazolin-2-yl)tetrahydro-2H-pyran-4-carboxamide], the EC50 was above 10000 nM in assay [1]; 7 nM on DYRK1A kinase; above 10000 nM in the assay on IL-6; above 10000 nM in assay [2]; above 10000 nM in assay [3]; 6800 nM in assay [4] (read-out: EC50). Besides, the EC50 at GSK3β kinase (setting [5]) was 536 nM. Further, the inhibition at 10 µM was 14.4% in assay [1], 6.1% in the assay with IL-6, 53.7% in assay [2] and 38.8% in assay [3].

For the compound `CN1CCC(n2cc(C(=O)Nc3ncc4ccc(-c5cncc6[nH]ccc56)cc4n3)cn2)CC1` [Compound 1802, N-(7-(1H-Pyrrolo[2,3-c]pyridin-4-yl)quinazolin-2-yl)-1-(1-methylpiperidin-4-yl)-1H-pyrazole-4-carboxamide], the EC50 was 1400 nM in assay [1]; 7 nM on DYRK1A kinase; above 10000 nM in the assay with IL-6; above 10000 nM in assay [2]; 1370 nM in assay [3]; 4400 nM in assay [4] (read-out: EC50). In addition, the EC50 at GSK3β kinase (setting [5]) was above 10000 nM. Besides, the inhibition at 10 µM with IL-6 was determined as 47.2%; in assay [2] it was 47.6%.

Take `CC(C)n1cc(C(=O)Nc2ncc3ccc(-c4cncc(NC5CCN(C)CC5)n4)cc3n2)cn1` [Compound 1813, 1-Isopropyl-N-(7-(6-((1-methylpiperidin-4-yl)amino)pyrazin-2-yl)quinazolin-2-yl)-1H-pyrazole-4-carboxamide]: the EC50 is 396 nM in assay [1]; 2 nM at DYRK1A kinase; above 10000 nM in the assay on IL-6; 5820 nM in assay [2]; 1000 nM in assay [3]; 952 nM in assay [4] (read-out: EC50). In addition, the EC50 on GSK3β kinase (setting [5]) is above 10000 nM. For the same compound, the inhibition at 10 µM in the assay with IL-6 was determined as 42%.

As to `C[C@H]1CCCN1CC(=O)Nc1cc2cc(-c3cnn(C)c3)cnc2cn1` [Compound 2767, (S)—N-(3-(1-Methyl-1H-pyrazol-4-yl)-1,7-naphthyridin-6-yl)-2-(2-methylpyrrolidin-1-yl)acetamide], the EC50 in assay [1] was above 10000 nM; on DYRK1A kinase it was 34 nM; in the assay with IL-6, above 10000 nM; in assay [2], above 10000 nM; in assay [3], above 10000 nM; in assay [4] (read-out: EC50), 896 nM. For the same compound, the EC50 at GSK3β kinase (setting [5]) was found to be 2520 nM. Also, the inhibition at 10 µM stood at 20.7% in assay [1], 0% with IL-6, 13.8% in assay [2] and 37% in assay [3].

As to `CN(CC(=O)Nc1cc2cc(-c3cnn(C)c3)cnc2cn1)C1CCC1` [Compound 2776, 2-(Cyclobutyl(methyl)amino)-N-(3-(1-methyl-1H-pyrazol-4-yl)-1,7-naphthyridin-6-yl)acetamide], the EC50 is 836 nM in assay [1]; 56 nM on DYRK1A kinase; above 10000 nM in the assay with IL-6; above 10000 nM in assay [2]; above 10000 nM in assay [3]; 1000 nM in assay [4] (read-out: EC50). In addition, at GSK3β kinase (setting [5]), the EC50 was above 10000 nM. Further, the inhibition at 10 µM in the assay with IL-6 came out at 10.4%; in assay [2], 39%; in assay [3], 8.1%.

Turning to `Cn1cc(-c2cnc3cnc(NC(=O)C4CCN(S(C)(=O)=O)CC4)cc3c2)cn1` [Compound 2792, N-(3-(1-Methyl-1H-pyrazol-4-yl)-1,7-naphthyridin-6-yl)-1-(methylsulfonyl) piperidine-4-carboxamide], the EC50 in assay [1] was above 10000 nM; at DYRK1A kinase, 12 nM; with IL-6, above 10000 nM; in assay [2], above 10000 nM; in assay [3] it was above 10000 nM; in assay [4] (read-out: EC50), 357 nM. Also, the EC50 at GSK3β kinase (setting [5]) is 1150 nM. The inhibition at 10 µM in assay [1] came out at 38.1%; in the assay on IL-6 it was 4%; in assay [2], 44.8%; in assay [3], 29%.

For the compound `Cn1cc(-c2cnc3cnc(NC(=O)CC4CNCCO4)cc3c2)cn1` (centres unmarked) [Compound 2807, N-(3-(1-Methyl-1H-pyrazol-4-yl)-1,7-naphthyridin-6-yl)-2-(morpholin-2-yl) acetamide], the EC50 is above 10000 nM in assay [1]; 74 nM at DYRK1A kinase; 7310 nM in the assay on IL-6; above 10000 nM in assay [2]; above 10000 nM in assay [3]; 919 nM in assay [4] (read-out: EC50). Besides, on GSK3β kinase (setting [5]), the EC50 stood at 4940 nM. In addition, the inhibition at 10 µM in assay [1] amounted to 0%; in assay [2], 35.2%; in assay [3], 7.9%.

As for `Cn1cc(-c2cnc3cnc(NC(=O)C4CCN(Cc5ncco5)CC4)cc3c2)cn1` [Compound 2816, N-(3-(1-Methyl-1H-pyrazol-4-yl)-1,7-naphthyridin-6-yl)-1-(oxazol-2-ylmethyl)piperidine-4-carboxamide], the EC50 in assay [1] was above 10000 nM; at DYRK1A kinase it was 24 nM; in the assay with IL-6, above 10000 nM; in assay [2] it was above 10000 nM; in assay [3], above 10000 nM; in assay [4] (read-out: EC50) it was 445 nM. The EC50 on GSK3β kinase (setting [5]) worked out at 5260 nM. Also, the inhibition at 10 µM turned out to be 15.4% in assay [1], 2.2% in the assay on IL-6, 27.3% in assay [2] and 23.2% in assay [3].

In the case of `Cn1cc(-c2cnc3cnc(NC(=O)C4CCN(Cc5ncccn5)CC4)cc3c2)cn1` [Compound 2820, N-(3-(1-Methyl-1H-pyrazol-4-yl)-1,7-naphthyridin-6-yl)-1-(pyrimidin-2-ylmethyl)piperidine-4-carboxamide], the EC50 in assay [1] is above 10000 nM; at DYRK1A kinase, 37 nM; in the assay on IL-6, above 10000 nM; in assay [2], 8910 nM; in assay [3] it was above 10000 nM; in assay [4] (read-out: EC50), 895 nM. At GSK3β kinase (setting [5]), the EC50 was determined as 7060 nM. The results for the inhibition at 10 µM (in assay [1]; in the assay with IL-6; in assay [3]) were 5.3%, 3.3% and 22.4%, respectively.

On to `CN1CCCN(CC(=O)Nc2cc3cc(-c4cnn(C)c4)cnc3cn2)CC1` [Compound 2826, 2-(4-Methyl-1,4-diazepan-1-yl)-N-(3-(1-methyl-1H-pyrazol-4-yl)-1,7-naphthyridin-6-yl)acetamide], for which the EC50 in assay [1] is above 10000 nM; at DYRK1A kinase, 82 nM; with IL-6 it was above 10000 nM; in assay [2], above 10000 nM; in assay [3] it was above 10000 nM; in assay [4] (read-out: EC50), 5300 nM. In addition, on GSK3β kinase (setting [5]), the EC50 was 5370 nM. In addition, the inhibition at 10 µM is 11.2% in assay [1], 2.1% with IL-6, 37.9% in assay [2] and 20.4% in assay [3].

Turning to `CN1CCN(c2ccc(C(=O)Nc3cc4cc(-c5cnn(C)c5)cnc4cn3)cn2)CC1` [Compound 2871, N-(3-(1-Methyl-1H-pyrazol-4-yl)-1,7-naphthyridin-6-yl)-6-(4-methylpiperazin-1-yl)nicotinamide], the EC50 was above 10000 nM in assay [1]; 16 nM on DYRK1A kinase; above 10000 nM in the assay on IL-6; 9770 nM in assay [2]; 4680 nM in assay [3]; 1700 nM in assay [4] (read-out: EC50). For the same compound, on GSK3β kinase (setting [5]), the EC50 was above 10000 nM. Further, the inhibition at 10 µM turned out to be 24.5% in assay [1] and 0% with IL-6.
